# Laboratory results: PMC4877059 (Journal of medicinal chemistry, 2013)
# Where two headings read alike, the source gives them in different places.
# Assays:
# [1] = 15 min; cited from earlier work
# [2] = test system: NPS-induced hyperlocomotion; details: 50 mpk IP, 90 minute mouse model; cited from earlier work
# NPSR [3] = biological target: T1, NPSR (Homo sapiens, UniProt Q6W5P4); assay: ERK assay; format: cell-based
# T1 sequence (Q6W5P4 1-371): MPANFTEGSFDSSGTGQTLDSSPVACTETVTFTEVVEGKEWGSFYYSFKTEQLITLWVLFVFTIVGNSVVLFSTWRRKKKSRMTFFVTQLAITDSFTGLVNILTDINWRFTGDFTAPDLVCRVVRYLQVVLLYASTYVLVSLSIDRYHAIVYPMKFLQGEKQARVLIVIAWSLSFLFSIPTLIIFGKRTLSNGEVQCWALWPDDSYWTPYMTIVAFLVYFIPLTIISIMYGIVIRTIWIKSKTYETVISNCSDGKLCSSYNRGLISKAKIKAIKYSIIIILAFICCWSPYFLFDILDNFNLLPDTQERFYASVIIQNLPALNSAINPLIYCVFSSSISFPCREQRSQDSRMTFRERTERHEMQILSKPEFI
# NPSR [4] = biological target: T1, NPSR; assay: Calcium mobilization assay in CHO-NPSR cells; format: cell-based
# NPSR [5] = biological target: T1, NPSR; assay: cAMP assay; format: cell-based; details: relative to 1b
# 55 targets = assay: Profiling at 10 µM against 55 targets
# [6] = Mouse pharmacokinetics, 10 mpk IP; format: in vivo
# Wistar rats [7] = assay: Rat palatable food intake model; format: in vivo
# [8] = biological target: Human Recombinant µ-Opioid Receptor OPRM1 (Homo sapiens, UniProt P35372); format: binding
# Human Recombinant µ-Opioid Receptor OPRM1, sequence (P35372 whole entry): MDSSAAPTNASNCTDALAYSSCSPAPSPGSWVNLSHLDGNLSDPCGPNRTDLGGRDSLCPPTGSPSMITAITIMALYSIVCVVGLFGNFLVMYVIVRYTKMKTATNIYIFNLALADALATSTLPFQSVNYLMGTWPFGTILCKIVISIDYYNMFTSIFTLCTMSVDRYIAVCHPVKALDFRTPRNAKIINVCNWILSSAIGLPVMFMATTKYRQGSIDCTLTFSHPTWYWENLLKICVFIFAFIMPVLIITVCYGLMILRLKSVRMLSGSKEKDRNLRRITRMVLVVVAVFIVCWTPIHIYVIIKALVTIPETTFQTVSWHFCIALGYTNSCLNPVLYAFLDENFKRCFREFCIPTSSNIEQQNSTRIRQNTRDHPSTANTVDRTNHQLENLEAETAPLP
# ERK phosphorylation = details: rats, 1 mpk; cited from earlier work
# Solubility in PBS = format: physicochemical; details: aqueous buffer
# [9] = Stability after incubation in mouse liver microsomes; details: 0 min
# NPSR [10] = biological target: T1, NPSR; assay: [125I] Y10-hNPS binding; details: relative to 1b
# rats = details: cited from earlier work
# NPSR [11] = details: 30 mpk IP, discrete regions of the rat brain; cited from earlier work
# [12] = 0 h
# [13] = Stability in aqueous buffers; format: physicochemical; details: HBBS or PBS, 48 hours
# Wistar rats [14] = details: rat food intake model; cited from earlier work
compound,measurement,setting,value
"O=C(NCc1ccc(F)cc1)N1CCN2C(=O)OC(c3ccccc3)(c3ccccc3)C2C1 (centres unmarked) [1b, 3-oxo-1,1-diphenyl-tetrahydro-oxazolo[3,4-a]pyrazine-7-carboxylic acid 4-fluoro-benzylamide]",brain level,[1],~6000 nM
same,reduction of NPS-induced hyperlocomotion,[2],about 50%
"Cc1nc2ccccn2c1P(=S)(c1ccccc1)c1ccccc1 [12d, 3-(Diphenylphosphorothioyl)-2-methylimidazo[1,2-a]pyridine]",IC50,"NPSR [3]; ERK IC50, Table 1, CHO-NPS cells, 1 nM NPS (EC80), one experiment in duplicate",30 nM
"C[n+]1cc(P(=S)(c2ccccc2)c2ccccc2)n2ccccc21 [13a, 3-(Diphenylphosphorothioyl)-1-methylimidazo[1,2-a]pyridin-1-ium]",ERK assay inhibition at the highest concentration tested,"NPSR [3]; Table 1 footnote b, 50 µM",<50% ^b
"Cc1c(P(=S)(c2ccccc2)c2ccccc2)n2ccccc2[n+]1CCCc1ccccc1 [20d, 3-(Diphenylphosphorothioyl)-2-methyl-1-(3-phenylpropyl)imidazo[1,2-a]pyridin-1-ium]",IC50,NPSR [4]; IC50 in the calcium assay,1 nM
same,IC50,NPSR [3]; IC50 in the ERK assay,2 nM
"Cc1c(P(=S)(c2ccccc2)c2ccccc2)n2ccccc2[n+]1C/C=C/c1ccccc1.[Br-] [20e, 1-Cinnamyl-3-(diphenylphosphorothioyl)-2-methylimidazo[1,2-a]pyridin-1-ium]",fold more potent than 1b in the cAMP assay,NPSR [5],9 fold
same,inhibition of control in seven of 55 targets,55 targets,> 90%
same,"Brain concentration, mean","[6]; 10 mpk IP, 0 hr",BQL
same,"Plasma concentration, mean","[6]; 10 mpk IP, 0 hr",BQL
same,"Brain concentration, mean","[6]; 10 mpk IP, 0 hr, N=3",BQL
same,"Plasma concentration, mean","[6]; 10 mpk IP, 0 hr, N=3",BQL
same,"Brain concentration, mean","[6]; 10 mpk IP, 0.083 hr",30 nmol/g
same,"Brain concentration, mean","[6]; 10 mpk IP, 0.25 hr",52 nmol/g
same,"Brain concentration, mean","[6]; 10 mpk IP, 0.5 hr",53 nmol/g
same,"Brain concentration, mean","[6]; 10 mpk IP, 1 hr",44 nmol/g
same,"Brain concentration, mean","[6]; 10 mpk IP, 2 hr",57 nmol/g
same,"Brain concentration, mean","[6]; 10 mpk IP, 4 hr",53 nmol/g
same,"Brain concentration, mean","[6]; 10 mpk IP, 8 hr",60 nmol/g
same,"Brain concentration, mean","[6]; 10 mpk IP, 12 hr",93 nmol/g
same,"Brain concentration, mean","[6]; 10 mpk IP, 24 hr",52 nmol/g
same,concentration at 1 h,"[6]; plasma, ip, 10 mg/kg, Plasma concentration, mean, 10 mpk IP, 1 hr",556 nM
same,concentration at 2 h,"[6]; plasma, ip, 10 mg/kg, Plasma concentration, mean, 10 mpk IP, 2 hr",386 nM
same,concentration at 4 h,"[6]; plasma, ip, 10 mg/kg, Plasma concentration, mean, 10 mpk IP, 4 hr",245 nM
same,concentration at 8 h,"[6]; plasma, ip, 10 mg/kg, Plasma concentration, mean, 10 mpk IP, 8 hr",214 nM
same,concentration at 12 h,"[6]; plasma, ip, 10 mg/kg, Plasma concentration, mean, 10 mpk IP, 12 hr",126 nM
same,concentration at 24 h,"[6]; plasma, ip, 10 mg/kg, Plasma concentration, mean, 10 mpk IP, 24 hr",54 nM
same,adverse reactions,[6]; single 10 mpk IP dose,No adverse reactions were observed
same,reversal of NPS-induced suppression of palatable food intake,"Wistar rats [7]; single 10 µg icv, before 10 µg NPS icv, 15, 30 and 60 min",reverse the suppression of food intake
same,"fold activity relative to naloxone or morphine, DAMGO displacement",[8],< 200 fold
same,alcohol induced ERK phosphorylation in the central amygdala,ERK phosphorylation,reduce alcohol induced ERK phosphorylation
same,solubility kinetic,Solubility in PBS; kinetic from dmso stock,> 150 µM
same,solubility thermodynamic,Solubility in PBS; thermodynamic from solid,~45 µM
same,fold more potent than 1b in the calcium assay,NPSR [4]; relative to 1b,5 fold
same,% parent compd remaining after incubation in mouse liver microsomes,[9]; with NADPH,100%
same,% parent compd remaining after incubation in mouse liver microsomes,[9]; without NADPH,94%
same,fold more potent than 1b in the displacement assay,NPSR [10],5 fold
same,efficacy in rat alcohol models,rats; IP dose of 1.0 mpk,show efficacy
same,alcohol self administration in rats,rats; dose as low as 1 mpk,supression of alcohol self administartion
CCC(C)(CCN1CCOCC1)N(Cc1cc2ccccc2n(C)c1=O)C(=O)C1CCCCC1 (centres unmarked) [compound 2],ex vivo occupancy of NPSR,NPSR [11],high ex vivo occupancy of NPSR
same,% parent compd remaining after incubation in mouse liver microsomes,[12],100%
"Cc1c(P(=S)(c2ccccc2)c2ccccc2)[n+]2ccccc2n1C.[I-] [compound 7, 3-(diphenylphosphorothioyl)-1,2-dimethylimidazo[1,2-a]pyridin-1-ium]",chemical stability in aqueous buffers,[13],did not decompose to any other species
"NPS: neuropeptide S, peptide sequence SFRNGVGTGMKKTSFQRAKS, endogenous agonist of NPSR [reference compound]",palatable food intake,"Wistar rats [7]; 10 µg NPS icv, 15, 30 and 60 min",marked reduction in food intake
[D-Cys(tBU)^5]NPS,reversal of the anorectic effect of NPS,Wistar rats [14],reverse the anorectic effect of NPS
